# Assays:
# [1] = target: L-type voltage-dependent Ca2+ channel (Homo sapiens, UniProt O60840+Q01668+Q13698+Q13936); assay: Inhibition of L-type voltage-dependent Ca2+ channel at 1 uM
# [2] = Potentiation of forskolin-induced CFTR deltaF508 mutant expressed in FRT cells co-expressing halide-sensitive YFP-H148Q/I152L by fluorescence quenching assay; assay type: cell-based, Homo sapiens
SMILES,inhibition at 1 µM [1] [%],pEC50 for potentiation of CFTR deltaF508 (activation potency) [2]
CCOC(=O)C1=C(C)NC(C)=C(C(=O)OC)C1c1ccc([N+](=O)[O-])cc1 (stereo not drawn),79.2,
CCOC(=O)C1=C(C)NC(C)=C(C(=O)OCC)C1c1cccc(Br)c1,100,6.54
CCOC(=O)C1=C(C)NC(C)=C(C(=O)OCC)C1c1ccccc1,100,6.4
CCOC(=O)C1=C(C)NC(C)=C(C(=O)OCC)C1c1cccc([N+](=O)[O-])c1,100,
COC(=O)C1=CNC=C(C(=O)OC)C1c1ccccc1Cl,19.7,
CCOC(=O)C1=C(C)N=C(C)/C(=C(/O)OCC)C1/C=C/c1ccccc1 (stereo not drawn),46.3,
CCOC(=O)C1=C(C)NC(C)=C(C(=O)OCC)C1c1c(F)c(F)c(F)c(F)c1F,100,
CCOC(=O)C1=C(C)N=C(C)/C(=C(/O)OCC)C1/C=C/c1ccccc1OC (stereo not drawn),27.6,
C=CCOC(=O)C1=C(C)NC(C)=C(C(=O)OCC=C)C1c1ccc(C(C)(C)C)cc1,5.9,6.96
CCOC(=O)C1=C(C)NC(C)=C(C(=O)OCC)C1c1ccc(Cl)cc1,93.3,
CCOC(=O)C1=C(C)NC(C)=C(C(=O)OCC)C1c1ccc(C)cc1,29.4,
CCOC(=O)C1=C(C)N(c2ccc(OC)cc2)C(C)=C(C(=O)OCC)C1c1ccccc1,38.7,
COC(=O)C1=C(C)N(c2ccc(N(C)C)cc2)C(C)=C(C(=O)OC)C1c1ccc(Cl)cc1,12.9,
CCOC(=O)C1=C(C)NC(C)=C(C(=O)OCC)C1c1ccc(F)cc1,98.6,5.87
CCOC(=O)C1=C(C)NC(C)=C(C(=O)OCC)C1c1cc(Cl)cc(Cl)c1OC,100,6.51
CCOC(=O)C1=C(C)NC(C)=C(C(=O)OCC)C1c1ccc(OC)cc1OC,41.8,6.09
COC(=O)C1=C(C)NC(C)=C(C(=O)OCCCBr)C1c1cccc([N+](=O)[O-])c1 (stereo not drawn),100,6.06
CCOC(=O)C1=C(C)NC(C)=C(C(=O)OC)C1c1ccco1 (stereo not drawn),86.9,5.85
COC(=O)C1=C(C)NC(C)=C(C(=O)OC)C1c1ccc(Cl)cc1Cl,100,6.72
CCOC(=O)C1=C(C)NC(C)=C(C(=O)OC)C1c1ccc(C)o1 (stereo not drawn),37.6,6.15
CCOC(=O)C1=C(C)NC(C)=C(C(=O)OC)C1c1ccccc1 (stereo not drawn),100,
COC(=O)C1=C(C)NC(C)=C(C(=O)OC)C1c1ccc(Cl)cc1,92.6,5.96
CCOC(=O)C1=C(C)NC(C)=C(C(=O)OC)C1c1ccc(Cl)cc1 (stereo not drawn),100,6.51
COC(=O)C1=C(C)NC(C)=C(C(=O)OC)C1c1ccccc1Cl,100,6.34
CCOC(=O)C1=C(C)NC(C)=C(C(=O)OCC)C1c1ccc(Br)cc1,27.1,6.3
CCOC(=O)C1=C(C)NC(C)=C(C(=O)OCC)C1c1ccc(Cl)c(Cl)c1,100,6.1

SMILES,inhibition at 1 µM [1] [%],pEC50 for potentiation of CFTR deltaF508 (activation potency) [2]
CCOC(=O)C1=C(C)NC(C)=C(C(=O)OC)C1c1ccc(Cl)c(Cl)c1 (stereo not drawn),100,6.89
COC(=O)C1=C(C)NC(C)=C(C(=O)OC)C1c1ccc(OC)cc1,9.1,6.29
COC(=O)C1=C(C)NC(C)=C(C(=O)OC)C1c1ccccc1F,95.9,6.26
CCOc1ccc(C2C(C(=O)OC)=C(C)NC(C)=C2C(=O)OC)cc1,14.6,5.27
COC(=O)C1=C(C)NC(C)=C(C(=O)OC)C1c1ccc(C(C)C)cc1,54.9,6.18
COC(=O)C1=C(C)NC(C)=C(C(=O)OC)C1c1ccc(OC)c(Br)c1,32.4,5.48
COC(=O)C1=C(C)NC(C)=C(C(=O)OC)C1c1ccc(OC)c([N+](=O)[O-])c1,15.6,4.93
COC(=O)C1=C(C)NC(C)=C(C(=O)OC)C1c1ccc2c(c1)OCO2,37.2,5.71
CCOC(=O)C1=C(C)NC(C)=C(C(=O)OCC)C1c1ccc(C(C)(C)C)cc1,32.1,5.89
CC1=C(C(=O)OCc2ccccc2)C(c2ccc(O)cc2)C(C(=O)OCc2ccccc2)=C(C)N1,72.8,5.92
CC1=C(C(=O)OCc2ccccc2)C(c2ccc(Cl)cc2)C(C(=O)OCc2ccccc2)=C(C)N1,92.9,5.23
COCCOC(=O)C1=C(C)NC(C)=C(C(=O)OCCOC)C1c1cccc([N+](=O)[O-])c1,100,5.93
CCOC(=O)C1=C(C)NC(C)=C(C(=O)OCC)C1c1ccc(OC)cc1,34.2,
COC(=O)C1=C(C)N(C)C(C)=C(C(=O)OC)C1c1ccc(Cl)c([N+](=O)[O-])c1,35.1,5.47
COC(=O)C1=C(C)N(C)C(C)=C(C(=O)OC)C1c1cccc(Cl)c1Cl,42.2,5.23
COC(=O)C1=C(C)N(C)C(C)=C(C(=O)OC)C1c1ccc(-c2ccccc2)cc1,23.5,5.63
CCOC(=O)C1=C(C)NC(C)=C(C(=O)OCC)C1c1c(Cl)cccc1Cl,100,6.52
COC(=O)C1=C(C)N(C)C(C)=C(C(=O)OC)C1c1cccc(Cl)c1,40.2,4.89
CCOC(=O)C1=C(C)NC(C)=C(C(=O)OCC)C1c1ccc(N(CC)CC)cc1,34.7,5.59
COC(=O)C1=C(C)NC(C)=C(C(=O)OC)C1c1ccc(N(C)C)cc1,4.1,
CC1=C(C(=O)OC(C)C)C(c2ccc(Cl)cc2)C(C(=O)OC(C)C)=C(C)N1,50.5,6.14
COc1ccc(C(=O)OC2C(C(=O)OCc3ccccc3)=C(C)NC(C)=C2C(=O)OCc2ccccc2)cc1OC,23.3,5.41
COc1ccc(C2C(C(=O)OC(C)C)=C(C)NC(C)=C2C(=O)OC(C)C)cc1OC,22.1,5.76
COC(=O)C1=C(C)N=C(C)/C(=C(/O)OC)C1c1cccc(Cl)c1 (stereo not drawn),100,6.22
CCOC(=O)C1=C(C)NC(C)=C(C(=O)OC)C1c1cccc([N+](=O)[O-])c1 (stereo not drawn) [NITRENDIPINE],100,
